Assay: molar heat capacity at constant pressure
Conditions: Liquid, Flow calorimetry

CCCCCCCCCC(=O)OCC [ethyl decanoate]
Conditions | molar heat capacity at constant pressure [J/K/mol]
294 K, 100 kPa | 400.39
294 K, 3080 kPa | 399.98
294 K, 6090 kPa | 399.53
294 K, 8970 kPa | 399.07
294 K, 12120 kPa | 398.72
294.1 K, 14870 kPa | 398.28
294.1 K, 17910 kPa | 397.82
294.1 K, 21090 kPa | 397.38
294.1 K, 24040 kPa | 396.93
304 K, 130 kPa | 406.09
304 K, 3030 kPa | 405.62
304 K, 6160 kPa | 405.12
304 K, 9030 kPa | 404.66
304 K, 11950 kPa | 404.19
304 K, 15090 kPa | 403.69
304 K, 17870 kPa | 403.23
304.1 K, 21100 kPa | 402.75
304.1 K, 24050 kPa | 402.24
313.9 K, 110 kPa | 411.45
313.9 K, 2920 kPa | 410.92
313.9 K, 5990 kPa | 410.45
313.9 K, 9080 kPa | 409.95
314 K, 11910 kPa | 409.43
314 K, 15030 kPa | 408.93
314 K, 18090 kPa | 408.41
314 K, 21080 kPa | 407.89
314 K, 24110 kPa | 407.34
323.8 K, 150 kPa | 416.54
323.9 K, 3040 kPa | 416.03
323.9 K, 5930 kPa | 415.53
323.9 K, 9070 kPa | 415.03
323.9 K, 11980 kPa | 414.54
323.9 K, 15050 kPa | 414.03
324 K, 18050 kPa | 413.54
324 K, 21210 kPa | 413.06
324 K, 24030 kPa | 412.57
333.8 K, 120 kPa | 423.19
333.8 K, 2960 kPa | 422.7
333.8 K, 5990 kPa | 422.28
333.8 K, 9040 kPa | 421.77
333.9 K, 12030 kPa | 421.17
333.9 K, 14940 kPa | 420.66
333.9 K, 18050 kPa | 420.15
333.9 K, 21100 kPa | 419.65
334 K, 24050 kPa | 419.11
343.7 K, 150 kPa | 429.52
343.7 K, 3000 kPa | 429.02
343.7 K, 6190 kPa | 428.5
343.8 K, 8990 kPa | 427.96
343.8 K, 12100 kPa | 427.46
343.8 K, 14910 kPa | 426.93
343.8 K, 17990 kPa | 426.4
343.8 K, 21010 kPa | 426.07
343.9 K, 23970 kPa | 425.54
353.7 K, 110 kPa | 435.96
353.7 K, 2980 kPa | 435.41
353.7 K, 6020 kPa | 434.91
353.7 K, 8990 kPa | 434.4
353.8 K, 11920 kPa | 433.87
353.8 K, 14940 kPa | 433.36
353.8 K, 17960 kPa | 432.85
353.8 K, 21070 kPa | 432.33
353.9 K, 23980 kPa | 431.81

CCCCCCCC(=O)OCC [ethyl octanoate]
Conditions | molar heat capacity at constant pressure [J/K/mol]
294 K, 160 kPa | 339.59
294 K, 3020 kPa | 339.17
294.1 K, 5960 kPa | 338.74
294.1 K, 9040 kPa | 338.3
294.1 K, 12020 kPa | 337.9
294.1 K, 14980 kPa | 337.54
294.1 K, 17990 kPa | 337.13
294.1 K, 21060 kPa | 336.71
294.1 K, 23980 kPa | 336.29
303.7 K, 2940 kPa | 344.3
303.7 K, 6070 kPa | 343.83
303.8 K, 8950 kPa | 343.35
303.8 K, 12020 kPa | 342.9
303.9 K, 15040 kPa | 342.5
304 K, 18130 kPa | 342.09
304 K, 21050 kPa | 341.67
304 K, 24030 kPa | 341.18
305.6 K, 160 kPa | 344.76
314.3 K, 170 kPa | 350.6
314.3 K, 3140 kPa | 350.17
314.3 K, 6130 kPa | 349.71
314.4 K, 9110 kPa | 349.29
314.4 K, 12100 kPa | 348.89
314.4 K, 15030 kPa | 348.53
314.5 K, 18310 kPa | 348.11
314.5 K, 20910 kPa | 347.72
314.5 K, 24100 kPa | 347.25
323.8 K, 130 kPa | 355.82
323.8 K, 3030 kPa | 355.4
323.8 K, 6160 kPa | 354.96
323.8 K, 21030 kPa | 352.89
323.9 K, 9300 kPa | 354.54
323.9 K, 12120 kPa | 354.09
323.9 K, 15230 kPa | 353.71
323.9 K, 18110 kPa | 353.28
323.9 K, 24100 kPa | 352.47
333.7 K, 110 kPa | 360.49
333.7 K, 3060 kPa | 360.06
333.7 K, 6010 kPa | 359.65
333.8 K, 9110 kPa | 359.17
333.8 K, 11920 kPa | 358.75
333.8 K, 15070 kPa | 358.37
333.8 K, 18080 kPa | 357.9
333.9 K, 21120 kPa | 357.47
333.9 K, 24000 kPa | 357.06
343.5 K, 130 kPa | 365.32
343.5 K, 2950 kPa | 364.93
343.5 K, 6040 kPa | 364.48
343.5 K, 8990 kPa | 364.02
343.6 K, 12070 kPa | 363.6
343.7 K, 15050 kPa | 363.15
343.8 K, 18070 kPa | 362.7
343.8 K, 21010 kPa | 362.3
343.8 K, 24090 kPa | 361.84
353.6 K, 130 kPa | 370.06
353.6 K, 3030 kPa | 369.66
353.6 K, 6060 kPa | 369.24
353.7 K, 8990 kPa | 368.8
353.7 K, 11900 kPa | 368.4
353.8 K, 15040 kPa | 367.99
353.9 K, 18020 kPa | 367.57
354 K, 20960 kPa | 367.14
354 K, 24110 kPa | 366.72

Source: the NIST ThermoML archive (doi:10.1021/acs.jced.8b00199)
